Measurements as given in the OPERA property sets (Mansouri et al. 2018).

Details: not given

| Structure (SMILES) | log10 Koa | log10 vapour pressure (mmHg) | logP | melting point [°C] | boiling point [°C] | log10 Koc (L/kg) | ready biodegradability | log10 Henry constant (atm·m³/mol) |
| --- | --- | --- | --- | --- | --- | --- | --- | --- |
| Brc1ccc(Oc2cc(Br)c(Br)cc2Br)c(Br)c1 | 11.3 | -7.51 | 7.32 |  |  |  |  |  |
| O=c1[nH]cc(Br)c(=O)[nH]1 |  |  |  | 310 |  |  |  |  |
| CNCCN(C)C |  |  |  |  | 117 |  |  |  |
| O=c1oc2ccccc2c(O)c1C(CC(O)c1ccc(Cl)cc1)c1ccc(Cl)s1 (stereo not given) |  |  |  | 104 |  |  |  |  |
| CN1CCCc2ccccc21 |  |  |  |  | 246 |  |  |  |
| OCCN(CCO)c1nc(N2CCCCC2)c2nc(N(CCO)CCO)ncc2n1 |  |  |  | 158 |  |  |  |  |
| CCS(=O)CCSP(=O)(OC)OC (stereo not given) |  | -4.55 |  |  |  | 1 |  |  |
| Cc1ccc2c(c1Cl)C(=O)c1ccccc1C2=O |  |  |  | 170 |  |  |  |  |
| Ic1cc(I)cc(I)c1 |  |  |  | 184 |  |  |  |  |
| C1CC2CC12 (stereo not given) |  | 2.56 |  |  | 45.5 |  |  |  |
| O=C(c1ccc(O)c(O)c1)c1c(O)cc(O)cc1O |  |  |  | 222 |  |  |  |  |
| C=Cc1c(C)cc(C)cc1C |  |  |  | -37 | 209 |  |  |  |
| O=C(Cl)c1c(F)c(F)c(F)c(F)c1F |  |  |  |  | 158 |  |  |  |
| CCCCC(CC)CN1C(=O)C2C3C=CC(C3)C2C1=O (stereo not given) |  | -4.74 |  |  |  |  |  |  |
| Cl.Nc1ccc(N=Nc2ccccc2)c(N)c1 |  |  |  | 118 |  |  |  |  |
| CCCCC(C)(C)C(C)C |  |  |  |  | 160 |  |  |  |
| O=C(O)C=Cc1ccccc1F |  |  |  | 179 |  |  |  |  |
| C=Cc1cccc(C=C)c1 |  | -0.237 |  | -52.3 |  |  | not readily biodegradable |  |
| Cc1ccn2nc(S(=O)(=O)Nc3c(F)cccc3F)nc2n1 |  | -11.6 |  | 252 |  | 1.45 |  |  |
| O=C1c2ccccc2C(=O)C1c1ccc(Cl)cc1 |  |  |  | 146 |  |  |  |  |
| COC1CCCCC1 |  |  |  | -74.4 | 133 |  |  |  |
| O=C1OC(C(O)CO)C(O)=C1O (stereo not given) |  |  |  | 168 |  |  |  |  |
| O=Cc1ccc(Oc2ccccc2)cc1 |  |  |  | 24.5 |  |  |  |  |
| CCOc1ccccc1 |  | 0.185 |  | -29.5 | 170 |  | readily biodegradable |  |
| Cc1c(NC(=O)c2cccnc2)c(=O)n(-c2ccccc2)n1C |  |  |  | 253 |  |  |  |  |
| CCCCOC(=O)c1ccccc1C(=O)OC1CCCCC1 |  | -5.32 |  |  |  |  |  |  |

| Structure (SMILES) | log10 Koa | log10 vapour pressure (mmHg) | logP | melting point [°C] | boiling point [°C] | log10 Koc (L/kg) | ready biodegradability | log10 Henry constant (atm·m³/mol) |
| --- | --- | --- | --- | --- | --- | --- | --- | --- |
| CCCCCCc1ccc2c(c1)CCC2 |  |  |  | -34 | 292 |  |  |  |
| Cc1ccc(O)c2ccccc12 |  |  |  | 85.8 |  |  |  |  |
| O=S(=O)(O)c1cccc2c(S(=O)(=O)O)cccc12 |  |  |  |  |  |  | readily biodegradable |  |
| CC(C)(C)Oc1ccccc1 |  |  |  | -24 | 186 |  |  |  |
| COC(=O)[C@@H](C)N(C(=O)c1ccccc1)c1ccc(F)c(Cl)c1 |  | -5.12 |  |  |  |  |  |  |
| O=C1Nc2ccc(Br)cc2C1=O |  |  |  | 250 |  |  |  |  |
| CC[C@H](c1ccc(O)cc1)[C@@H](CC)c1ccc(O)cc1 |  |  |  | 186 |  |  |  |  |
| CCCCC1C(=O)NC(=O)N(C2CCCCC2)C1=O (stereo not given) |  |  |  | 84 |  |  |  |  |
| CC(=O)CC(C)C(C)=O (stereo not given) |  |  |  |  | 196 |  |  |  |
| CCCCCCCCCCCCCCCCCCCCCCO |  |  |  | 72.5 |  |  |  |  |
| CCN(CC)CCOC(=O)[C@@H]1N2C(=O)[C@@H](NC(=O)Cc3ccccc3)[C@H]2SC1(C)C.I |  |  |  | 178 |  |  |  |  |
| CC(C)C(Cl)Cl |  | 1.6 |  |  | 106 |  |  |  |
| Nc1ccn([C@H]2CC[C@@H](CO)O2)c(=O)n1 |  |  |  | 218 |  |  |  |  |
| Cc1ccc(N=Nc2c(O)ccc3ccccc23)c([N+](=O)[O-])c1 |  |  |  |  |  |  | not readily biodegradable |  |
| Cc1cc(CC(=O)O)n(C)c1C(=O)c1ccc(Cl)cc1 |  |  |  | 178 |  |  |  |  |
| CC(=O)Oc1ccc(C(c2ccc(OC(C)=O)cc2)c2ccccn2)cc1 |  |  |  | 134 |  |  |  |  |
| CO/N=C(/C(=O)OC)c1ccccc1COc1ccccc1C |  | -7.76 |  | 99 |  |  |  |  |
| OC[C@H]1O[C@H](O)[C@H](O)[C@@H](O)[C@@H]1O |  | -13.1 |  |  |  |  |  |  |
| CC1(C)S[C@@H]2[C@H](NC(=O)C3(N)CCCCC3)C(=O)N2[C@H]1C(=O)O |  |  |  | 182 |  |  |  |  |
| CNc1ccccc1 |  | -0.344 |  | -57 | 196 | 2.28 | not readily biodegradable | -5.05 |
| O=C(O)c1ccccc1C1c2ccc(O)cc2Oc2cc(O)ccc21 |  |  |  | 126 |  |  |  |  |
| Cc1cccc(O)c1 |  | -0.959 |  | 11.8 | 202 |  | readily biodegradable | -6.07 |
| CCCCCCCCC(Br)C(=O)O (stereo not given) |  |  |  | 4 |  |  |  |  |
| CCOC(=O)C1=C(C)NC(C)=C(C(=O)OCC)C1 |  |  |  | 180 |  |  |  |  |
| CC(=O)N1C[C@H](O)C[C@H]1C(=O)O |  |  |  | 132 |  |  |  |  |
| CCO[Si](CCCN)(OCC)OCC |  |  |  |  | 217 |  | not readily biodegradable |  |

| Structure (SMILES) | log10 Koa | log10 vapour pressure (mmHg) | logP | melting point [°C] | boiling point [°C] | log10 Koc (L/kg) | ready biodegradability | log10 Henry constant (atm·m³/mol) |
| --- | --- | --- | --- | --- | --- | --- | --- | --- |
| CC(=O)O.CCCCCCCCCCCCNC(=N)N |  | -6.82 |  | 136 |  |  |  |  |
| C=CCc1ccc(OC(C)=O)c(OC)c1 |  | -2.5 |  | 30.5 | 281 |  |  |  |
| CC(C)(c1cc(Br)c(O)c(Br)c1)c1cc(Br)c(O)c(Br)c1 |  |  |  | 181 |  |  | not readily biodegradable |  |
| Cc1ccc(/C(=C\CN2CCCC2)c2ccccn2)cc1 |  |  |  | 60 |  |  |  |  |
| O=C(O)C(F)(F)C(F)(F)C(=O)O |  |  |  | 119 |  |  |  |  |
| COc1nn(CSP(=S)(OC)OC)c(=O)s1 |  | -5.47 |  | 39 |  | 1.53 |  |  |
| CC(C)(O)CO |  |  |  |  | 176 |  |  |  |
| CCSCC(=O)O |  |  |  | -8.5 |  |  |  |  |
| Clc1ccc(Cl)c(-c2cccc(Cl)c2Cl)c1 | 8.36 |  |  |  |  |  |  | -3.85 |
| CC(=O)c1cccc(C(F)(F)F)c1 |  |  |  |  | 199 |  |  |  |
| CC1=CCCC1 |  |  |  | -126 | 75.5 |  |  |  |
| O=CCC=O |  |  |  | 72 |  |  |  |  |
| O=c1[nH]c2c(c(=O)n1C1CCCCC1)CCC2 |  | -8.82 |  | 316 |  | 2.14 |  |  |
| Cc1c(N)cccc1[N+](=O)[O-] |  |  |  | 92 | 305 |  |  |  |
| O=C=Nc1cccc2ccccc12 |  |  |  |  | 269 |  |  |  |
| SCCCCCCCCS |  |  |  |  | 270 |  |  |  |
| CC(C)=C1CCC(C)CC1 (stereo not given) |  |  |  |  | 173 |  |  |  |
| NCCCN |  |  |  |  | 140 |  |  |  |
| C[C@]12CC[C@@H]3c4ccc(O)cc4CC[C@H]3[C@@H]1C[C@@H](O)[C@@H]2O |  |  |  | 282 |  |  |  |  |
| Cc1ccccc1N(C)C |  | -0.0643 |  | -60 | 194 |  |  |  |
| CC1=CCCC(C)(C)C1CO (stereo not given) |  |  |  |  | 215 |  |  |  |
| Cc1ccc([N+](=O)[O-])c2ccccc12 |  |  |  | 71.5 |  |  |  |  |
| O=C(O)c1cc([N+](=O)[O-])ccc1[N+](=O)[O-] |  |  |  |  |  | 2.3 |  |  |
| CC(c1ccccc1)c1ccccc1O (stereo not given) |  |  |  |  |  |  | not readily biodegradable |  |
| CCCC(O)CC(C)C (stereo not given) |  |  |  | -81 | 164 |  |  |  |
| CN(C)c1ccc(C(=O)c2ccccc2)cc1 |  |  |  | 92.5 |  |  |  |  |

| Structure (SMILES) | log10 Koa | log10 vapour pressure (mmHg) | logP | melting point [°C] | boiling point [°C] | log10 Koc (L/kg) | ready biodegradability | log10 Henry constant (atm·m³/mol) |
| --- | --- | --- | --- | --- | --- | --- | --- | --- |
| O=C(O)c1ccc([N+](=O)[O-])cc1[N+](=O)[O-] |  |  |  | 182 |  |  |  |  |
| Oc1cc(Cl)c(Br)cc1Cl |  |  |  |  |  |  | not readily biodegradable |  |
| c1ccc(Cc2ccccn2)cc1 |  |  |  | 12.5 | 277 |  |  |  |
| Sc1c(Cl)c(Cl)c(Cl)c(Cl)c1Cl |  |  |  | 232 |  |  |  |  |
| CCC(Oc1ccc(C(C)(C)CC)cc1C(C)(C)CC)C(=O)Nc1ccc(NC(=O)C(F)(F)C(F)(F)C(F)(F)F)c(O)c1 (stereo not given) |  |  |  |  |  |  | not readily biodegradable |  |
| CCC(c1ccccc1)c1c(O)c2ccccc2oc1=O (stereo not given) |  |  |  | 180 |  |  |  |  |
| Cn1cccc1 |  | 1.33 |  |  | 115 |  | readily biodegradable |  |
| Nc1ccc([N+](=O)[O-])cc1N |  |  |  | 200 |  |  |  |  |
| O=C1NC(=O)C2(CCc3ccccc3C2)N1 (stereo not given) |  |  |  | 268 |  |  |  |  |
| CCc1cccc(N)c1 |  |  |  | -64 | 214 |  |  |  |
| CCC(C)C(C)(C)C(C)C (stereo not given) |  |  |  |  | 165 |  |  |  |
| Cc1ccccc1N=Cc1ccccc1 |  |  |  |  | 314 |  |  |  |
| CC(=O)c1ccc(Br)s1 |  |  |  | 94.5 |  |  |  |  |
| N#CCc1ccccc1Cl |  |  |  | 24 | 251 |  |  |  |
| CCOCCOC(C)(C)C |  |  |  |  | 148 |  |  |  |
| O=[N+]([O-])c1ccccc1 |  | -0.611 |  | 5.7 | 211 | 1.94 | not readily biodegradable | -4.62 |
| Nc1ccc(OCCCCCN2C(=O)c3ccccc3C2=O)cc1 |  |  |  | 114 |  |  |  |  |
| CCN(CC)C(=O)/C(Cl)=C(/C)OP(=O)(OC)OC |  | -4.78 |  | -45 |  |  |  |  |
| CCc1cc(Cc2cc(CC)cc(C(C)(C)C)c2O)c(O)c(C(C)(C)C)c1 |  |  |  | 120 |  |  |  |  |
| Clc1cc(Cl)cc(-c2ccccc2Cl)c1 |  |  |  |  |  |  |  | -3.7 |
| CC(=O)CC(=O)Nc1ccc(-c2ccc(NC(=O)CC(C)=O)c(C)c2)cc1C |  |  |  | 212 |  |  | not readily biodegradable |  |
| Cc1ccc(C)s1 |  | 0.994 |  | -62.6 | 136 |  |  |  |
| Nc1ccc(N)c(N)c1 |  |  |  | 97.3 | 340 |  |  |  |

Same assay, conditions: fish

| Structure (SMILES) | log10 BCF | log10 biotransformation half-life (days) |
| --- | --- | --- |
| Brc1ccc(Oc2cc(Br)c(Br)cc2Br)c(Br)c1 | 6.01 | 1.95 |
| C=Cc1cccc(C=C)c1 | 2.54 | 0.59 |
| COP(=O)(OC)Oc1ccc([N+](=O)[O-])c(C)c1 | 0.44 | 0.01 |
| CNc1ccccc1 | 1 | -0.88 |
| CC(C)=C1C=C2CCC3C(C)(C(=O)O)CCCC3(C)C2CC1 (stereo not given) | 2.17 |  |
| CC(C)(c1cc(Br)c(O)c(Br)c1)c1cc(Br)c(O)c(Br)c1 | 2.43 |  |
| COc1nn(CSP(=S)(OC)OC)c(=O)s1 | 0.74 | -1.15 |
| Clc1ccc(Cl)c(-c2cccc(Cl)c2Cl)c1 | 4.84 | 2.33 |
| O=[N+]([O-])c1ccccc1 | 0.67 | -0.93 |
| CC(=O)CC(=O)Nc1ccc(-c2ccc(NC(=O)CC(C)=O)c(C)c2)cc1C | 0.2 | -1.5 |
